Where two headings read alike, the source gives them in different places. Blank lines part the entries; values can stand above or below the compound they belong to.
Columns and labels:
[1] = Animal biodistribution of 99mTc complexes in guinea pigs; type: in vivo, guinea pig;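 also: Heart, liver and kidney plus urine values are percent of the injected material, background-corrected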
Description: (§1) Percentage biodistribution of injected material was calculated (after correction for background) for all organs using the formula: [formula]
(§2) Since only samples of muscle and blood were taken, the percentage in these tissues was calculated assuming blood and muscle to represent 5.8 and 43% of total animal weight respectively using the formula: [formula]
Since only samples of muscle and blood were taken, the percentage in these tissues was calculated assuming blood and muscle to represent 5.8 and 43% of total animal weight respectively using the formula: [formula] where CF= 0.058 for blood

[2] = rat, in vivo
Description: In vivo biodistribution: 0.1 ml Tc^99m prep was injected i.v. into a laterial tail vein of 6 anaesthetised rats.
At 2 minutes and 60 minutes post-injection, 3 rats were sacrificed by decapitation, bled from the neck and dissected. The following organs were removed at dissection: kidney; bladder(+ urine), lung, liver, spleen, stomach, small intestine, large intestine, brain (weighed), heart (weighed), thyroid and samples of blood (weighed) and muscle (weighed), the residual carcass and the tail (injection site). Subsequently samples were counted in an automatic twin crystal gamma counter.
as §1, §2

[3] = Table VIII, [TcL3 ]^+ complex of the ligand, guinea pigs, 2 min p.i.
[4] = Table VIII, [TcL3 ]^+ complex of the ligand, guinea pigs, 60 min p.i.
[5] = from Table VIII, [TcL3 ]^+, guinea pigs, 60'
[6] = guinea pig, 60 min p.i. in vivo, mean
[7] = guinea pig, 2 min p.i. in vivo, mean

Compound: COC(CC(OC)P(C)C)P(C)C.COC(CC(OC)P(C)C)P(C)C.COC(CC(OC)P(C)C)P(C)C.[99Tc+] (stereo not shown) [Example 16]
Blood [1, 6]: 2.03 % injected dose/organ
Heart [1, 6]: 0.57 % injected dose/organ
Heart/Blood Counts/Gram ratio [1, 6]: 7.08
Heart/Liver Counts/Gram ratio [1, 6]: 0.94
Heart/Lung Counts/Gram ratio [1, 6]: 0.4
Heart/Muscle Counts/Gram ratio [1, 6]: 3.98
Kidney + Urine [1, 6]: 23.3 % injected dose/organ
Liver [1, 6]: 10.0 % injected dose/organ
Liver + GI [1, 6]: 48.6 % injected dose/organ
Lung [1, 6]: 1.01 % injected dose/organ
Muscle [1, 6]: 20.7 % injected dose/organ
Blood ([2]; 2 min): 7.15 % injected dose/organ
Heart ([2]; 2 min): 1.30 % injected dose/organ
Heart/Blood Counts/Gram ratio ([2]; 2 min): 2.78
Heart/Liver Counts/Gram ratio ([2]; 2 min): 1.14
Heart/Lung Counts/Gram ratio ([2]; 2 min): 0.5
Heart/Muscle Counts/Gram ratio ([2]; 2 min): 5.01
Kidney + Urine ([2]; 2 min): 9.33 % injected dose/organ
Liver ([2]; 2 min): 17.4 % injected dose/organ
Liver + GI ([2]; 2 min): 31.5 % injected dose/organ
Lung ([2]; 2 min): 3.57 % injected dose/organ
Muscle ([2]; 2 min): 29.1 % injected dose/organ
Blood ([2]; 60 min): 0.64 % injected dose/organ
Heart ([2]; 60 min): 0.99 % injected dose/organ
Heart/Blood Counts/Gram ratio ([2]; 60 min): 22.1
Heart/Liver Counts/Gram ratio ([2]; 60 min): 1.64
Heart/Lung Counts/Gram ratio ([2]; 60 min): 0.7
Heart/Muscle Counts/Gram ratio ([2]; 60 min): 6.4
Kidney + Urine ([2]; 60 min): 25.7 % injected dose/organ
Liver ([2]; 60 min): 8.81 % injected dose/organ
Liver + GI ([2]; 60 min): 43.3 % injected dose/organ
Lung ([2]; 60 min): 1.79 % injected dose/organ
Muscle ([2]; 60 min): 17.1 % injected dose/organ

Compound: COC(CC(OC)P(C)C)P(C)C.COC(CC(OC)P(C)C)P(C)C.O=[N][99Tc+][Cl].[Cl-] (stereo not shown) [Example 17]
Blood [1, 6]: 1.31 % injected dose/organ
Heart [1, 6]: 0.70 % injected dose/organ
Heart/Blood Counts/Gram ratio [1, 6]: 13.9
Heart/Liver Counts/Gram ratio [1, 6]: 4.21
Heart/Lung Counts/Gram ratio [1, 6]: 1.3
Heart/Muscle Counts/Gram ratio [1, 6]: 6.81
Kidney + Urine [1, 6]: 17.6 % injected dose/organ
Liver [1, 6]: 2.76 % injected dose/organ
Liver + GI [1, 6]: 57.1 % injected dose/organ
Lung [1, 6]: 0.55 % injected dose/organ
Muscle [1, 6]: 1.60 % injected dose/organ
Blood ([2]; 60 min): 0.44 % injected dose/organ
Heart ([2]; 60 min): 1.23 % injected dose/organ
Heart/Blood Counts/Gram ratio ([2]; 60 min): 39.1
Heart/Liver Counts/Gram ratio ([2]; 60 min): 2.47
Heart/Lung Counts/Gram ratio ([2]; 60 min): 2.7
Heart/Muscle Counts/Gram ratio ([2]; 60 min): 5.51
Kidney + Urine ([2]; 60 min): 15.8 % injected dose/organ
Liver ([2]; 60 min): 6.03 % injected dose/organ
Liver + GI ([2]; 60 min): 47.9 % injected dose/organ
Lung ([2]; 60 min): 0.72 % injected dose/organ
Muscle ([2]; 60 min): 22.9 % injected dose/organ

Compound: COCC(COC)(CP(C)C)CP(C)C.COCC(COC)(CP(C)C)CP(C)C.COCC(COC)(CP(C)C)CP(C)C.[99Tc+] [Example 18]
Blood [1, 7]: 5.14 % injected dose/organ
Heart [1, 7]: 1.2 % injected dose/organ
Heart/Blood Counts/Gram ratio [1, 7]: 5.7
Heart/Liver Counts/Gram ratio [1, 7]: 1.12
Heart/Lung Counts/Gram ratio [1, 7]: 0.6
Heart/Muscle Counts/Gram ratio [1, 7]: 6.5
Kidney + Urine [1, 7]: 14.5 % injected dose/organ
Liver [1, 7]: 17.3 % injected dose/organ
Liver + GI [1, 7]: 36.9 % injected dose/organ
Lung [1, 7]: 1.65 % injected dose/organ
Muscle [1, 7]: 27.4 % injected dose/organ
Blood [1, 6]: 0.46 % injected dose/organ
Heart [1, 6]: 1.06 % injected dose/organ
Heart/Blood Counts/Gram ratio [1, 6]: 56.1
Heart/Liver Counts/Gram ratio [1, 6]: 5.63
Heart/Lung Counts/Gram ratio [1, 6]: 1.9
Heart/Muscle Counts/Gram ratio [1, 6]: 6.14
Kidney + Urine [1, 6]: 15.0 % injected dose/organ
Liver [1, 6]: 2.6 % injected dose/organ
Liver + GI [1, 6]: 53.3 % injected dose/organ
Lung [1, 6]: 0.56 % injected dose/organ
Muscle [1, 6]: 23.7 % injected dose/organ
Blood ([2]; 2 min): 2.85 injected dose/organ
Heart ([2]; 2 min): 1.87 injected dose/organ
Heart/Blood Counts/Gram ratio ([2]; 2 min): 10.4
Heart/Liver Counts/Gram ratio ([2]; 2 min): 1.68
Heart/Lung Counts/Gram ratio ([2]; 2 min): 1.2
Heart/Muscle Counts/Gram ratio ([2]; 2 min): 8.45
Kidney + Urine ([2]; 2 min): 10.6 injected dose/organ
Liver ([2]; 2 min): 16.3 injected dose/organ
Liver + GI ([2]; 2 min): 36.4 injected dose/organ
Lung ([2]; 2 min): 2.59 injected dose/organ
Muscle ([2]; 2 min): 26.3 injected dose/organ
Blood ([2]; 60 min): 0.14 injected dose/organ
Heart ([2]; 60 min): 1.41 injected dose/organ
Heart/Blood Counts/Gram ratio ([2]; 60 min): 152
Heart/Liver Counts/Gram ratio ([2]; 60 min): 8.42
Heart/Lung Counts/Gram ratio ([2]; 60 min): 3.2
Heart/Muscle Counts/Gram ratio ([2]; 60 min): 8.36
Kidney + Urine ([2]; 60 min): 12.2 injected dose/organ
Liver ([2]; 60 min): 2.45 injected dose/organ
Liver + GI ([2]; 60 min): 49.92 injected dose/organ
Lung ([2]; 60 min): 0.75 injected dose/organ
Muscle ([2]; 60 min): 19.4 injected dose/organ

Compound: COC(CC(OC)P(C)C)P(C)C (stereo not shown) [PL30]
HEART/BLOOD ([2]; 2 min): 2.78
HEART/LIVER ([2]; 2 min): 5.01
Heart ([2]; 2 min): 1.30

Compound: CCOCCOCCOC(CP(C)C)CP(C)C [PL41]
HEART/BLOOD ([2]; 2 min): 7.83
HEART/LIVER ([2]; 2 min): 0.83
Heart ([2]; 2 min): 1.08
HEART/BLOOD ([2]; 60 min): 122
HEART/LIVER ([2]; 60 min): 4.65
Heart ([2]; 60 min): 1.02

The next lines start with results.

Heart [1, 3]: 0.98 % injected dose
Heart/Blood Counts/Gram ratio [1, 3]: 1.63
Heart/Liver Counts/Gram ratio [1, 3]: 0.82
Heart/Muscle Counts/Gram ratio [1, 3]: 8.18
Liver [1, 3]: 24.0 % injected dose
Heart [1, 4]: 0.83 % injected dose
Heart/Blood Counts/Gram ratio [1, 4]: 10.5
Heart/Liver Counts/Gram ratio [1, 4]: 0.72
Heart/Muscle Counts/Gram ratio [1, 4]: 4.29
Liver [1, 4]: 13.3 % injected dose
heart/blood ratio compared with dmpe complex [1, 5]: better
heart/liver ratio compared with dmpe complex [1, 5]: better
heart/muscle ratio compared with dmpe complex [1, 5]: better
liver retention compared with dmpe complex [1, 5]: much lower liver retention at 60'
liver retention compared with dmpe complex [2]: reduced liver retention at 60'
Heart ([2]; 2 min): 1.71 % injected dose
Heart/Blood Counts/Gram ratio ([2]; 2 min): 4.19
Heart/Liver Counts/Gram ratio ([2]; 2 min): 1.81
Heart/Muscle Counts/Gram ratio ([2]; 2 min): 6.61
Liver ([2]; 2 min): 12.6 % injected dose
Heart ([2]; 60 min): 1.42 % injected dose
Heart/Blood Counts/Gram ratio ([2]; 60 min): 25.7
Heart/Liver Counts/Gram ratio ([2]; 60 min): 10.8
Heart/Muscle Counts/Gram ratio ([2]; 60 min): 5.46
Liver ([2]; 60 min): 1.53 % injected dose
Compound: COCP(C)CCP(C)COC (stereo not shown) [Example 1, MeP(CH2 OMe)-(CH2)2 -(Me)P(CH2 OMe)]
heart uptake and retention compared with dmpe complex ([1]; from Table VIII, [TcL3 ]^+, guinea pigs, 2' and 60'): increased heart uptake and retention at 2' and 60'
heart uptake and retention compared with dmpe complex [2]: significantly higher heart uptake and retention at 2' and 60'
heart/liver ratio compared with dmpe complex [2]: significantly increased heart/liver ratio at 60'

Heart [1, 3]: 0.96 % injected dose
Heart/Blood Counts/Gram ratio [1, 3]: 1.59
Heart/Liver Counts/Gram ratio [1, 3]: 0.51
Heart/Muscle Counts/Gram ratio [1, 3]: 9.19
Liver [1, 3]: 24.85 % injected dose
Heart [1, 4]: 0.43 % injected dose
Heart/Blood Counts/Gram ratio [1, 4]: 7.82
Heart/Liver Counts/Gram ratio [1, 4]: 0.30
Heart/Muscle Counts/Gram ratio [1, 4]: 4.60
Liver [1, 4]: 26.13 % injected dose
general trend of biodistribution compared with dmpe complexes [2]: show the same general trend
Heart ([2]; 2 min): 0.96 % injected dose
Heart/Blood Counts/Gram ratio ([2]; 2 min): 9.05
Heart/Liver Counts/Gram ratio ([2]; 2 min): 0.57
Heart/Muscle Counts/Gram ratio ([2]; 2 min): 4.99
Liver ([2]; 2 min): 20.45 % injected dose
Heart ([2]; 60 min): 0.94 % injected dose
Heart/Blood Counts/Gram ratio ([2]; 60 min): 49.63
Heart/Liver Counts/Gram ratio ([2]; 60 min): 7.26
Heart/Muscle Counts/Gram ratio ([2]; 60 min): 4.17
Liver ([2]; 60 min): 1.62 % injected dose
Compound: COCP(C)CCP(C)C (stereo not shown) [Example 2, Me2 P-(CH2)2 -P(Me) (CH2 OMe)]

HEART/BLOOD ([2]; 2 min): 4.07
HEART/LIVER ([2]; 2 min): 0.46
Heart ([2]; 2 min): 0.88
HEART/BLOOD ([2]; 60 min): 35.3
HEART/LIVER ([2]; 60 min): 1.65
Heart ([2]; 60 min): 0.55
Compound: CP(C)CC1(CP(C)C)COC(C)(C)OC1 [PL35]

HEART/BLOOD ([2]; 2 min): 14.0
HEART/LIVER ([2]; 2 min): 1.82
Heart ([2]; 2 min): 1.87
HEART/BLOOD ([2]; 60 min): 345
HEART/LIVER ([2]; 60 min): 17.1
Heart ([2]; 60 min): 1.77
Compound: COCCOCC(COC)(CP(C)C)CP(C)C [PL46]

HEART/BLOOD ([2]; 2 min): 1.13
HEART/LIVER ([2]; 2 min): 0.11
Heart ([2]; 2 min): 0.32
HEART/BLOOD ([2]; 60 min): 131
HEART/LIVER ([2]; 60 min): 0.24
Heart ([2]; 60 min): 0.18
Compound: CP(C)CC1(CP(C)C)CCOCC1 [PL49]

Source: patent US4916214A, “Cationic complexes of technetium-99m” (Amersham International plc., priority 1987, dated 1990)
